From patent US20050054680A1, “Agonists and antagonists of 5h3-like receptors of invertebrates as pesticides” (priority 2001, published 2005)
Entries after “also recorded” stand apart in the source; their conditions may differ. Like-named read-outs stand apart in the source and are kept apart here.

Columns and labels:
nematode C. elegans = details: cited from earlier work
[1] = test system: C. elegans of the Bristol N2 strain; assay: Automated feeding assay (bead ingestion, pharyngeal pumping); type: in vivo, Caenorhabditis elegans; details: for Effect of 0.325 mM compound on serotonin-stimulated (0.325 mM) bead ingestion: 0.325 mM compound plus 0.325 mM serotonin; for Effect of 0.325 mM compound on bead ingestion: no added serotonin; for IC50: Caenorhabditis elegans
Text: An automated screening assay has been developed and described in the present Applicants' co-pending International patent application No. PCT/AU00/01476 (WO 01/40500). Using the screening assay, twenty novel tropanyl ester compounds as well as tropanyl dichlorobenzoate were screened for nematicidal activity.
The assay used was essentially that described in WO 01/40500 with minor modifications. The protocol was as follows:
(1.) Plate Culture. C. elegans of the Bristol N2 strain (Brenner, 1974) were cultured at room temperature on HMS174 E. coli bacteria (Campbell et al., 1978) spread on a 150 mm diameter petri dish containing enhanced NGM 1.7% (w/v) (Avery and Horvitz, 1990) agar until a good population of adult nematodes was present, but food reserves had not been exhausted.
(2.) The nematodes were collected by washing each plate with 10 mL and then 5 mL of M9 buffer plate and filtering over a 20 μm nylon mesh (Nytal—Catalogue no. BCNY-HDO02-20) to retain adult nematodes. The nematodes from 7-8 of these 150 mm plates were collected together and placed on a 63 μm mesh filter (Nytal—product code PA-25-43) and washed with 200-250 mL of M9 buffer or MilliQ water. This procedure allows the passage of nematodes whilst retaining larger debris. Finally the nematodes were collected over a 20 μm mesh.
(3.) Adult nematodes were collected from the mesh using a pasteur pipette and allowed to settle in an eppendorf tube at 1×g for 10 minutes. This packed volume was used to calculate quantities of nematodes for experiments and assays, although nematodes were resuspended in 2-10 volumes of M9 buffer for transfer. Quantitative transfers of nematodes were performed using a Gilson Pipetman P200 or equivalent and a yellow tip with 5 mm cut off the sharp end.
(4.) Assays were performed in 24 well tissue-lture clusters (Nunc multidish). The final assay volume was 230 μL comprising the following sequential additions: • (i) M9 buffer—sufficient to bring the final volume to 230 μL • ([…]) Any other pharmacological agents—≦1.5 μL of drug in DMSO (or water) • (iv) Nematodes—150 μL of a 10% (v/v) stock in M9 • (v) Fluorescent beads—23 μL of a 1% w/v solution in M9.
Where serotonin or other pharmacological agents were omitted, the volume was adjusted with M9 buffer. Control experiments included 1.5 μL of DMSO except in the case of ondansetron, which was added from an aqueous stock.
The fluorescent beads were 1.30 μm uniformly dyed microsphere beads with a hydrophilic surface-coating. The fluorescence excitation maximum was 420 nm and the emission maximum was 485 nm (catalogue code FC04F, carboxylate-modified polystyrene/polyvinyl copolymer, manufactured and supplied by Bangs Laboratories, Inc. 9025 Technology Drive, Fishers, INDIANA 46038-2886, USA).
(5.) The nematodes were incubated for 60 minutes after the addition of the fluorescent beads at room temperature (≈21° C.) without shaking. The assay was terminated by the addition of 20 μL of 100 mM sodium azide.
(6.) Two aliquots of 100 μl each were transferred from each well of the 24 well cluster to a pair of wells in a pre-blocked mesh-bottomed plate (see below for details of the mesh-bottomed plate) and the buffer/bead suspension was immediately aspirated away through the filter mesh using a Millipore Multiscreen vacuum manifold.
(7.) A total of eight washing steps were performed. Each of the first five washes used 200 μL of 1%(w/v) sodium lauryl sulphate (SDS—Sigma) in M9 buffer. The third and fifth washes involved pipetting the solution up and down in the wells of the plate ten times each wash. The SDS washes were followed by three washes with 200 μL of M9 buffer only. At the end of each washing step, solutions were aspirated away through the mesh using a Millipore Multiscreen vacuum manifold. […]

C. elegans = details: cited from earlier work
aphid Myzus persicae = details: in vivo; cited from earlier work
insects = details: in vivo; cited from earlier work
[2] = test system: larvae of the lepidopteran Helicoverpa armigera; details: in vivo; cited from earlier work
[3] = listed as tropanyl dichlorobenzoate

IC50 ([1]; in the absence of added serotonin, estimated (FIG. 2), read-out: IC50 (dose that depressed the basal bead ingestion rate by 50%)): 11 µM
IC50 ([1]; in the presence of 1 mM serotonin, estimated from log dose response curves (FIG. 2), read-out: IC50 (inhibitory concentration 50%) for bead ingestion): 40 µM
SMILES: CN1[C@@H]2CC[C@H]1CC(OC(=O)c1cc(Cl)cc(Cl)c1)C2 (stereo partly shown) [MDL 72222, 3,5-dichlorobenzoic acid tropan-3-yl ester]
Effect on pharyngeal pumping (nematode C. elegans; as summarised in the background, no concentration given): profoundly inhibited
Effect on serotonin-stimulated rate of pharyngeal pumping (nematode C. elegans; drug 0.325 mM, serotonin 0.325 mM): antagonised the stimulatory effect
Effect of 0.325 mM compound on serotonin-stimulated (0.325 mM) bead ingestion [1]: reverses strongly
Effect of 0.325 mM compound on serotonin-stimulated (0.325 mM) bead ingestion [1, 3]: strongly reversed
Effect of 0.325 mM compound on bead ingestion [1]: inhibits
Effect of 0.325 mM compound on bead ingestion [1, 3]: reduced
Detrimental effects on C. elegans (C. elegans; in vivo, listed as tropanyl dichlorobenzoate): dose-dependent mortality and other detrimental effects; also recorded: dose-dependent detrimental effects, including lethality
Lowest effective concentration in the chronic toxicity assay (C. elegans; reported previously in WO 01/61000): ~11 µM
Detrimental effects on Myzus persicae (aphid Myzus persicae): dose-dependent detrimental effects, including lethality
Detrimental effects in insects (insects): significant detrimental effects, including some mortality
Effect on larval growth rates [2]: reduced growth rates
